In patent US4622312A, “Growth hormone releasing factor analogs” (Hoffmann-La Roche Inc., priority 1984, dated 1986):
No end group written: not given here.

Key:
[1] = test system: rat pituitary cells in tissue culture; assay: stimulation of growth hormone production in rat pituitary cells in tissue culture (RIA for rat growth hormone); assay type: cell-based
Procedure: Biological activity of the synthetic GRF(1-44)NH2 was identical to the natural GRF(1-44)NH2 which was isolated from a human pancreatic tumor of an individual suffering from acromegaly (Salk Institute standard hGRF--NH2 (NL-A-10)). The assay for biological activity, which is based on the ability to stimulate production of growth hormone in rat pituitary cells in tissue culture, was performed in the following manner.
Pituitaries from 30-40 male Sprague-Dawley rats (175 g) were removed aseptically after decapitation. The anterior lobes were collected, washed 3 times in sterile Hepes buffer (0.025M) (pH 7.35) and dispersed at 37° C. in 20-30 ml Hepes buffer (pH 7.35) containing collagenase (4 mg per ml) and Dispase (Protease grade II, 2 mg per ml). After gentle 100-110-min. vortexing and trituration by Pasteur pipette, the dispersed cells were separated by centrifugation (150×g, 4 min) and re-suspended in Hepes buffer containing neuraminidase (8 μg/ml), and 200 µg/ml ethylenedinitrisotetraacetic acid (EDTA) disodium salt pH 7.35, for 10 min. The cells were washed twice with plating medium and plated on multiwell-plates (1.5×10^5 cells per ml) using the following defined medium: F-12/DMEM/(6:3:1) (Gibco: 430-1700/430-1600/320-2591) with 2 g BSA/l., 2.38 g Hepes/1.50 mg PSN antibiotic mixture (Gibco Laboratories). The medium in each well was supplemented either with a sample of the novel GRF peptide or natural GRF(1-44)--NH2 at concentrations ranging from 0.8 to 200 fmol. per ml. of medium. Control wells contained no supplement. Plating was done with this medium added with 2% fetal calf serum to ensure rapid fixation of the cells. On the fourth day the cells were washed twice with the defined medium without fetal calf serum. Finally 900 μl of defined medium was added to each well plus 100 μl of the same medium containing each individual treatment, in triplicate. After 4 hours of incubation the medium was collected and diluted as required to conduct radioimmunoassay (RIAs) for rat growth hormone. […]

[2] = Rivier and Vale et al., Nature 300, 276-278 (1982); cited from earlier work

Compound: CC[C@H](C)[C@H](NC(=O)[C@H](C)NC(=O)[C@H](CC(=O)O)NC(=O)[C@H](C)NC(=O)[C@@H](N)Cc1ccc(O)cc1)C(=O)N[C@@H](Cc1ccccc1)C(=O)N[C@H](C(=O)N[C@@H](CC(N)=O)C(=O)N[C@@H](CO)C(=O)N[C@@H](Cc1ccc(O)cc1)C(=O)N[C@@H](CCCNC(=N)N)C(=O)N[C@@H](CCCCN)C(=O)N[C@H](C(=O)N[C@@H](CC(C)C)C(=O)NCC(=O)N[C@@H](CCC(N)=O)C(=O)N[C@@H](CC(C)C)C(=O)N[C@@H](CO)C(=O)N[C@@H](C)C(=O)N[C@@H](CCCNC(=N)N)C(=O)N[C@@H](CCCCN)C(=O)N[C@@H](CC(C)C)C(=O)N[C@@H](CC(C)C)C(=O)N[C@@H](CCC(N)=O)C(=O)N[C@@H](CC(=O)O)C(=O)N[C@H](C(=O)N[C@@H](CCSC)C(=O)N[C@@H](CO)C(=O)N[C@@H](CCCNC(=N)N)C(=O)N[C@@H](CCC(N)=O)C(=O)N[C@@H](CCC(N)=O)C(=O)NCC(=O)N[C@@H](CCC(=O)O)C(=O)N[C@@H](CO)C(=O)N[C@@H](CC(N)=O)C(=O)N[C@@H](CCC(N)=O)C(=O)N[C@@H](CCC(=O)O)C(=O)N[C@@H](CCCNC(=N)N)C(=O)NCC(=O)N[C@@H](C)C(=O)N[C@@H](CCCNC(=N)N)C(=O)N[C@@H](C)C(=O)N[C@@H](CCCNC(=N)N)C(=O)N[C@@H](CC(C)C)C(N)=O)[C@@H](C)CC)C(C)C)[C@@H](C)O [GRF(1-44)NH2]
- biological activity compared with natural GRF(1-44)NH2 (Salk Institute standard hGRF-NH2 (NL-A-10)) ([1]; synthetic versus natural peptide isolated from a human pancreatic tumor): identical

Compound: GRF(1-29)NH2
- intrinsic activity and potency in vitro [2]: full intrinsic activity and potency

Compound: YADAIFTNSYRKVLAQLSARKLLQDIMSR-NH2 [(Ala^15)-GRF(1-29)NH2, [Ala^15]-hGRF(1-29)-NH2]
- potency relative to GRF(1-29)NH2 (unsubstituted shortened GRF) ([1]; growth hormone release, 4 hours of incubation): 4.1 times
- potency relative to GRF (1-44)NH2 ([1]; on a weight for weight basis, growth hormone release, 4 hours of incubation): 5.1 times
